Laboratory results published in ChEMBL document CHEMBL5236649 (Bioorg Med Chem, 2023).

Assays:
D(3) dopamine receptor = D(3) dopamine receptor (Rattus norvegicus, UniProt P19020); assay: Displacement of [3H]-spiroperidol from rat D3 receptor expressed in HEK293 cells assessed as inhibition constant by Cheng-Prusoff equation analysis
D(2) dopamine receptor [1] = target: D(2) dopamine receptor (Rattus norvegicus, UniProt P61169); assay: biochemical
Description: Displacement of [3H]-spiroperidol from rat D2L receptor expressed in HEK293 cells assessed as inhibition constant by Cheng-Prusoff equation analysis

D(2) dopamine receptor [2] = target: D(2) dopamine receptor (Homo sapiens, UniProt P14416); assay: biochemical

SMILES	Ki (D(3) dopamine receptor)	Ki (D(2) dopamine receptor [1])	EC50 (D(2) dopamine receptor [2])
CCCN(CC(=O)N1CCN(C(=O)CN(CCC)[C@H]2CCc3c(O)cccc3C2)CC1)[C@H]1CCc2c(O)cccc2C1	115 nM	–	–
CCCN(CCc1ccc(CCN(CCC)[C@H]2CCc3c(O)cccc3C2)cc1)[C@H]1CCc2c(O)cccc2C1	3.86 nM	3.88 nM	–
CCCN(CCc1cc(O)c(CCN(CCC)[C@H]2CCc3nc(N)sc3C2)cc1O)[C@H]1CCc2nc(N)sc2C1	6.87 nM	–	34.4 nM
CCCN(CCN1CCN(CCN(CCC)[C@H]2CCc3c(O)cccc3C2)CC1)[C@H]1CCc2c(O)cccc2C1	3.56 nM	12 nM	–
CCCN(CCc1ccc(CCN(CCC)[C@H]2CCc3nc(N)sc3C2)cc1)[C@H]1CCc2c(O)cccc2C1	2.15 nM	4.91 nM	–
